test system: HBV; experiment: In vitro anti-HBV activity in HepG2.2.15 cell line (intracellular HBV DNA by qPCR at 1 μM); format: cell-based; conditions: Hepatitis B virus, 144 h; HepG2.2.15 cells, 1 μM compound, 6 days, intracellular HBV DNA as percentage compared to vehicle control (0.5% DMSO)
Outline: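 Intracellular HBV DNA was quantified by qPCR and given as percent of vehicle (0.5% DMSO), grouped into letter ranges. Stably transfected HepG2.2.15 cells had 6 days of exposure to 1 μM compound, with medium and compound renewed after day 3.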

| Structure (SMILES) | activity at 1 µM [%] |
| --- | --- |
| Cc1ncsc1-c1ccc(C(=O)N2CC[C@H](C(=O)Nc3cc(F)c(F)c(F)c3)C2)[nH]1 [Example 108, (S)-1-(5-(4-methylthiazol-5-yl)-1H-pyrrole-2-carbonyl)-N-(3,4,5-trifluorophenyl) pyrrolidine-3-carboxamide] | 45 to 60 |
| Cc1noc(C)c1-c1ccc(C(=O)N2CC[C@H](C(=O)Nc3cc(F)c(F)c(F)c3)C2)[nH]1 [Example 109, (S)-1-(5-(3,5-dimethylisoxazol-4-yl)-1H-pyrrole-2-carbonyl)-N-(3,4,5-trifluorophenyl) pyrrolidine-3-carboxamide] | 60 to 70 |
| Cc1nn(CC(=O)N2CC(O)C2)c(C)c1-c1ccc(C(=O)N2CC[C@H](C(=O)Nc3cc(F)c(F)c(F)c3)C2)[nH]1 [Example 112, (S)-1-(5-(1-(2-(3-hydroxyazetidin-1-yl)-2-oxoethyl)-3,5-dimethyl-1H-pyrazol-4-yl)-1H-pyrrole-2-carbonyl)-N-(3,4,5-trifluorophenyl)pyrrolidine-3-carboxamide] | 60 to 70 |
| Cc1cc[nH]c(=O)c1-c1ccc(C(=O)N2CC[C@H](C(=O)Nc3cc(F)c(F)c(F)c3)C2)[nH]1 [Example 118, (S)-1-(5-(4-methyl-2-oxo-1,2-dihydropyridin-3-yl)-1H-pyrrole-2-carbonyl)-N-(3,4,5-trifluorophenyl)pyrrolidine-3-carboxamide] | 60 to 70 |
| O=C(Nc1cc(F)c(F)c(F)c1)[C@H]1CCN(C(=O)c2ccc(-c3cn[nH]c(=O)c3)[nH]2)C1 [Example 121, (S)-1-(5-(6-oxo-1,6-dihydropyridazin-4-yl)-1H-pyrrole-2-carbonyl)-N-(3,4,5-trifluorophenyl)pyrrolidine-3-carboxamide] | 80 to 90 |
| Cc1cn[nH]c(=O)c1-c1ccc(C(=O)N2CC[C@H](C(=O)Nc3cc(F)c(F)c(F)c3)C2)[nH]1 [Example 124, (S)-1-(5-(5-methyl-3-oxo-2,3-dihydropyridazin-4-yl)-1H-pyrrole-2-carbonyl)-N-(3,4,5-trifluorophenyl)pyrrolidine-3-carboxamide] | 45 to 60 |
| Cc1cc(NC(=O)[C@H]2CCN(C(=O)c3ccc(-c4c(C)nn(CCO)c4C)[nH]3)[C@H]2C)ccc1F [Example 126, (2S,3S)—N-(4-fluoro-3-methylphenyl)-1-(5-(1-(2-hydroxyethyl)-3,5-dimethyl-1H-pyrazol-4-yl)-1H-pyrrole-2-carbonyl)-2-methylpyrrolidine-3-carboxamide] | < 45 |
| Cc1cc(NC(=O)[C@H]2CCN(C(=O)c3ccc(-c4ccnnc4)[nH]3)C2)ccc1F [Example 130, (S)—N-(4-fluoro-3-methylphenyl)-1-(5-(pyridazin-4-yl)-1H-pyrrole-2-carbonyl)pyrrolidine-3-carboxamide] | < 45 |
| O=C(Nc1cc(F)c(F)c(F)c1)[C@H]1CCN(C(=O)c2ccc(-c3cnccn3)[nH]2)C1 [Example 131, (S)-1-(5-(pyrazin-2-yl)-1H-pyrrole-2-carbonyl)-N-(3,4,5-trifluorophenyl)pyrrolidine-3-carboxamide] | 45 to 60 |
| Cc1n[nH]c(C)c1-c1ccc2cc(C(=O)N3CC[C@H](C(=O)Nc4cc(F)c(F)c(F)c4)C3)[nH]c2c1 [Example 134, (S)-1-(6-(3,5-dimethyl-1H-pyrazol-4-yl)-1H-indole-2-carbonyl)-N-(3,4,5-trifluorophenyl)pyrrolidine-3-carboxamide] | < 45 |
| Cc1ncnc(C)c1-c1ccc2c(Cl)c(C(=O)N3CC[C@H](C(=O)NCc4cnc(Cl)s4)C3)[nH]c2c1 [Example 136, (S)-1-(3-chloro-6-(4,6-dimethylpyrimidin-5-yl)-1H-indole-2-carbonyl)-N-((2-chlorothiazol-5-yl)methyl)pyrrolidine-3-carboxamide] | > 90 |
| Cc1ncnc(C)c1-c1cccc2c(Cl)c(C(=O)N3CC[C@H](C(=O)Nc4ccc(F)c(C#N)c4)C3)[nH]c12 [Example 137, (S)-1-(3-chloro-7-(4,6-dimethylpyrimidin-5-yl)-1H-indole-2-carbonyl)-N-(3-cyano-4-fluorophenyl)pyrrolidine-3-carboxamide] | 45 to 60 |

From patent US20230391752A1, “PYRROLIDINE-3-CARBOXAMIDE DERIVATIVES AND RELATED USES” (Chulalongkorn University, priority 2020, published 2023)
